Data reported in patent US20080076746A1, “Method of Treating Fish and Crustaceans With a Tellurium Based Immunomodulator” (priority 2003, published 2008).
Entries after “also recorded” stand apart in the source; their conditions may differ.

Tests used:
[1] = system: tilapia IL-10L; experiment: AS101 effect on intracellular IL-10L levels of tilapia PBL cell cultures (Western blot); type: cell-based, Tilapia hybrids (Oreochromis niloticus X O. aureus); details: 0.5 μg/ml AS101; dose-dependant; FIG. 1
Method: For in-vitro studies, AS101 was supplied as PBS solution, pH 7.4, at 4° C. For in-vivo experiments, AS101 powder was dissolved in the appropriate concentration in re-circulating water. PBL (peripheral blood leukocytes) were isolated from heparinized blood on a ficoll paque bed (Amersham Bioscience) and cultured as previously reported (9). For AS101 treatments, AS101 was added directly to the cultures at final concentration of 0.025 to 25 μg/ml, preferably 0.05 to 0.5 μg/ml. PBL were lysed as previously reported (6). Samples were electrophoresed on 12% SDS-PAGE and blotted with anti-human-IL-10 mAb (Santa Cruz Biotechnology, Inc sc-8438) (1:660 dilution) and HRP-conjugate secondary Ab (Jackson Immuno-Research) (1:6600 dilution).

[2] = system: IL-10L; experiment: Serum IL-10L levels in air-exposure stressed fish after AS101 bath immersion (ELISA); type: in vivo
Method: For in-vitro studies, AS101 was supplied as PBS solution, pH 7.4, at 4° C. For in-vivo experiments, AS101 powder was dissolved in the appropriate concentration in re-circulating water.
(§1) Fish were subjected to air exposure stress every 60 min for 90 sec during 4 hours (10). The fish were then divided into groups of 3, each separately held in 40 L plastic containers at 28°±2° C.
Fish blood was coagulated during 2 hours at room temperature, then centrifuged for 10 min at 1800×g. IL-10L levels were quantified in the collected sera using ELISA (Human Interleukin-10 ELISA Kit, pierce-endogen) according to manufacturer's instructions.

[3] = system: Aeromonas salmonicida; experiment: Stressed fish infected with Aeromonas salmonicida and immersed in soluble AS101; type: in vivo, goldfish (Carassius auratus); details: vs stressed infected fish not treated with AS101
Method: as §1

[4] = system: tilapia PBL (peripheral blood leukocytes); experiment: Cell toxicity in AS101-treated cell cultures (Blue staining); type: cell-based, Tilapia hybrids (Oreochromis niloticus X O. aureus); details: all AS101 doses, vs control
Method: PBL (peripheral blood leukocytes) were isolated from heparinized blood on a ficoll paque bed (Amersham Bioscience) and cultured as previously reported (9). For AS101 treatments, AS101 was added directly to the cultures at final concentration of 0.025 to 25 μg/ml, preferably 0.05 to 0.5 μg/ml.

What does the source list for `Cl[TeH]1(Cl)(Cl)OCCO1` [AS101, ammonium trichloro [dioxyethylene-O, O′] telurate]?
inhibition of intracellular tilapia IL-10L synthesis [1]: complete inhibition; serum IL-10L level ([2]; 2 hours post-stress, bath immersion in 20-ppm water solution, maximal effect, decrease from 719 in stressed fish, FIG. 3): 209 pg/mL; serum IL-10L change ([2]; 6 hours after stress induction and bath immersion in different AS101 concentrations, 20 μg/ml most efficient): significant IL-10L decrease; rate of survival ([3]; FIG. 5): higher survival rates; also recorded: higher rate of survival; number of wounds per fish ([3]; p=0.073, FIG. 4): significantly lower number of wounds per fish; also recorded: significantly less wounds; cell death (cell toxicity) [4]: did not show elevated cell death beyond control
